The numbers were not newly measured in US20070117867A1, “Kit comprising three independent compositions and methods for building muscle, increasing strength, increasing muscle size, increasing muscle performance and reducing muscle fatigue” (priority 2005, published 2007), which cites them from elsewhere.

The structures appear in SMILES notation.

One data set has as its system muscle. The following applies: Creatine supplementation.
Another data set concerns protein synthesis. The following applies: for the purposes of muscle growth and development.

In the case of `O=C(O)CCCCC1CCSS1` (stereo not drawn) [Alpha Lipoic Acid], the “body's utilization of blood sugar” value in the data set on type II diabetics is given as “significantly increase”.
Consider `CN(CC(=O)O)C(=N)N` [Creatine], for which the “concentration of Creatine in the muscle” value with muscle was “increase”. Further, the “resynthesis of Phosphocreatine” value in the data set on muscle (within 2 minutes of recovery following exercise) is on record as “increase”.
On to `CC(C)C[C@H](N)C(=O)O` [Leucine], for which, in the data set with protein synthesis, the protein synthesis result was “directly activate”.
